In PMC10477481 (The Journal of Biological Chemistry, 2023):

Tests used:
[1] = biological target: matrix metalloproteinase 2, recombinant (which of the four preparations is not told) (human) (UniProt P08253); assay: flow cytometry of protein-coated microbeads (Ig-coated bead test); KD estimated by the authors from the direct binding assays with labeled CTX and the competitive displacement studies together
[2] = test system: pro-MMP-2 activated by APMA; conditions: fluorescence-quenched MMP-specific peptide substrate; read-out: KM of FS-6 with MMP; cited from earlier work
Description: The assay was performed using a fluorescence-quenched MMP-specific peptide substrate FS-6 (Sigma; catalog no.: SCP0193, KM >30 μM) ([20]). Recombinantly produced human proMMP2 enzyme, dissolved in reaction buffer (70 mM Tris [pH 8.0], 150 mM NaCl, 5 mM CaCl2, 1 μM ZnCl2, and 0.05% Brij-35) at a concentration of 500 nM, was activated by addition of 1 mM APMA and incubated at 37 °C for 1 h. The assay reaction was then composed by adding 0.5 μl activated enzyme to yield a final concentration of 2.5 nM, 94.5 μl test substance (inhibitor) in reaction buffer, and finally 5 μl substrate to reach a fi ...

kallikrein = conditions: cited from earlier work
Excerpt: Therefore, we produced a CTX-displaying phage clone, customized, and validated the flow cytometry–based cobalt-coated bead test for quantitative assessment of the binding tendency of ligand-displaying phages to target proteins immobilized on the surface of microbeads. To support the validation and to investigate the specificity of bind ...

[3] = biological target: T1, recombinant human active MMP-2 (Homo sapiens, UniProt P08253); format: biochemical; conditions: pH 7.4
T1 construct: the mature active enzyme (amino acids: 110–660), expressed in E. coli (Sigma, catalog no.: SRP3118); purchased Sigma SRP3118; host or cells: E. coli
T1 sequence (P08253 110-660): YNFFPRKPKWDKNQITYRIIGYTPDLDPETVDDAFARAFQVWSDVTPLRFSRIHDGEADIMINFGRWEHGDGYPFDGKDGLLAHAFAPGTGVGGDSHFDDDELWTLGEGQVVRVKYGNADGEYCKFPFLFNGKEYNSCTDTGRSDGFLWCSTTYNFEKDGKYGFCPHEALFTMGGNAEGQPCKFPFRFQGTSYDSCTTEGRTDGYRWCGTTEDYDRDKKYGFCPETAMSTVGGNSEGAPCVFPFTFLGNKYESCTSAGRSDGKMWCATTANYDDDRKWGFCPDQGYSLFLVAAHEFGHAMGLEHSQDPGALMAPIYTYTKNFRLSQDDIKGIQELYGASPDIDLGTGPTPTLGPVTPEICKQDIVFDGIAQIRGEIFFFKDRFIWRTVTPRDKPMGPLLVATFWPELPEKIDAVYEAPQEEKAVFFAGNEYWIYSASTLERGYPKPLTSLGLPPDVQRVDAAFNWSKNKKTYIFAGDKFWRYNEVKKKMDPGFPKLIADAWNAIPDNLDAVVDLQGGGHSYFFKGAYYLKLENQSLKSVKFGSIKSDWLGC
Description: The assay was performed using fluorogenic dye-quenched (DQ)-gelatin from pig skin (ThermoFisher Scientific) as substrate and recombinant human MMP-2 enzyme (Sigma; catalog no.: SRP3118), dissolved in water (100 μg/ml), and diluted further in reaction buffer (50 mM Tris, 150 mM NaCl, 5 mM CaCl2, pH = 7.4). The assay (and control) reactions were composed by loading 50 μl enzyme (or buffer), 40 μl inhibitor (or buffer), and 10 μl substrate (or buffer) into wells of a 96-well plate (PS, black, half-area, clear-bottom; Greiner Bio-One) at concentrations needed for the stated final concentrations. […] Immediately thereafter, the plate was placed in a fluorescence plate reader (SpectraMax iD3; Molecular Devices), and fluorescence was measured every 15 min for 3 h (KM measurements) or every 5 min for 1 h (inhibitor measurements) at 37 °C (λexcitation = 484 nm and λemission = 525 nm). KM was determined by measuring V0 at a series of substrate concentrations (1.25, 2.5, 5, 10, 20, and 40 μg/ml) and enzyme concentrations of 2.5, 5, and 10 nM. Thereafter, the lowest enzyme concentration with reasonably good signal-to-noise ratio (2.5 nM) and a substrate concentration (3.5 μg/ml) approximately equivalent with the determined KM value (3.4 μg/ml, i.e., 34 nmol/l as calculated with approximate MW of 100,000 g/mol for DQ gelatin) were applied in the enzyme inhibition study. […]

chlorotoxin, synthetically produced, with carboxamide C terminus (from UniProt P45639 1-36) (peptide)
Kd [1]: 500 to 600 nM

Mca-Lys-Pro-Leu-Gly-Leu-Dpa-Ala-Arg-NH2 [FS-6, fluorescence-quenched MMP-specific peptide substrate]
Km [2]: > 30 µM

ecallantide [DX-88]
affinity to kallikrein (kallikrein): subnanomolar affinity

CNC(=O)[C@H](Cc1c[nH]c2ccccc12)NC(=O)[C@@H](CC(=O)NO)CC(C)C [Ilomastat, ilomastat]
effect on gelatinolytic activity of MMP-2 [3]: concentration-dependent inhibition
